Patent publication US20240010684A1, “MASP INHIBITORY COMPOUNDS AND USES THEREOF” (BAYER AKTIENGESELLSCHAFT, priority 2020, published 2024)
*1 amine or outer side, *2 acyl side, *3 side chain or, on linkers, in order; H or OH if unused. Where a SMILES comes first, the peptide text is derived from it. Bridges are numbered along the chain shown (N, C = ends). [ ]: non-standard residue; d: D form. X6 = O=C(CCC(=O)[*:1])NCCCOCCOCCOCCCN[*:2]; Oic = O=C(O)[C@@H]1C[C@@H]2CCCC[C@@H]2N1; tBuAla = CC(C)(C)C[C@H](N)C(=O)O; Pen = CC(C)(S)[C@H](N)C(=O)O; NMeC = CN[C@@H](CS)C(=O)O; Abu = CC[C@H](N)C(=O)O; PEG2 = NCCOCCOCCC(=O)O; Ahx = NCCCCCC(=O)O

Tests used:
human MASP2 = human MASP2 (Homo sapiens (Human), UniProt O00187); test: Biochemical human MASP2 assay (FRET substrate); settings: Average IC50; recombinant human MASP2; read-out: human MASP2 IC50
human MASP2, sequence (O00187 other isoform, or with tags, fused parts or gaps): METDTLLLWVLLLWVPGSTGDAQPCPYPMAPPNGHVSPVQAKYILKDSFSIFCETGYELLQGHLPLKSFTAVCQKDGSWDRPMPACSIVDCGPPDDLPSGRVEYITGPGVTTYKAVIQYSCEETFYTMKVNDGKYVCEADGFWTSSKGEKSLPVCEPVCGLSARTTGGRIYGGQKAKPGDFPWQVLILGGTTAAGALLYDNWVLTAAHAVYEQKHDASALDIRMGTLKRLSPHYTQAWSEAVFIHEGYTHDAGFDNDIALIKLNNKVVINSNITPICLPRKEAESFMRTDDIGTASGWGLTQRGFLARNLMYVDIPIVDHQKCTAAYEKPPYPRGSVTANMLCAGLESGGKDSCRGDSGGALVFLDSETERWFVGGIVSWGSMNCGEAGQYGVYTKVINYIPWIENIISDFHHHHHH
Description: The MASP1 or MASP2 expression vectors were transfected into the HEK293 (ATCC No. CRL-1573) cell line using Lipofectamine LTX® Reagent (Thermo-Fischer), as described by the manufacturer. The mature form of the recombinant human MASP1 and M[…] were secreted into the culture medium. The MASP1 and M[…] were purified from the conditioned media by affinity chromatography on Ni-NTA Superflow resin (Qiagen) as described by the manufacturer. 2.3 Biochemical Human MASP2 Assay […] The enzymatic reaction was initiated by addition of 25 μl of 60 μM solution of the FRET substrate DABCYL-[…]; […] The microtiter plate was incubated for 60-120 min at the temperature of 32 C. The increase of fluorescence intensity was measured in appropriate fluorescence plate reader (e.g. TECAN Ultra) using excitation wavelength of 340 nm and emission wavelength of 490 nm. IC50 values were calculated from percentage of inhibition of human MASP2 activity as a function of test compound concentration.

human MASP1 = human MASP1 (Homo sapiens (Human), UniProt P48740); test: Biochemical human MASP1 assay (FRET substrate); settings: Average IC50; recombinant human MASP1; read-out: human MASP1 IC50
human MASP1, sequence (P48740 other isoform, or with tags, fused parts or gaps): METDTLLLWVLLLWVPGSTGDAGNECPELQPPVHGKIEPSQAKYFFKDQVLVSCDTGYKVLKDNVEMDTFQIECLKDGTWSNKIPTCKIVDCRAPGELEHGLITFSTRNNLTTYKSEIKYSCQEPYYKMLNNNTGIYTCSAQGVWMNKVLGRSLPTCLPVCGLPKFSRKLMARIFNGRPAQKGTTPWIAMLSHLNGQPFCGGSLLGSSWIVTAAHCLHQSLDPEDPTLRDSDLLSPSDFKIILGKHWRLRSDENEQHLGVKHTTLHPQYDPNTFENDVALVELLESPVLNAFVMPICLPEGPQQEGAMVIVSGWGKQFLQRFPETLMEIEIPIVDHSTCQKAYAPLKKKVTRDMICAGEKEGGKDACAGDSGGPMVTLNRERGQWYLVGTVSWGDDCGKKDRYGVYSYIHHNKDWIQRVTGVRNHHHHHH
Description: A truncated cDNA sequence of human MASP1 encoding the fragment corresponding to the amino acids 297-699 with a C-terminal His Tag and N-terminal Ig-kappa secretion signal (SEQ ID No: 2) was subcloned into the mammalian expression vector pcDNA3.1 (Invitrogen).
The MASP1 or MASP2 expression vectors were transfected into the HEK293 (ATCC No. CRL-1573) cell line using Lipofectamine LTX® Reagent (Thermo-Fischer), as described by the manufacturer. The mature form of the recombinant human MASP1 and MASP2 proteases were secreted into the culture medium. The MASP1 and MASP2 proteins were purified from the conditioned media by affinity chromatography on Ni-NTA Superflow resin (Qiagen) as described by the manufacturer.
2.2 Biochemical Human MASP1 Assay
Recombinant human MASP1 enzyme produced in the HEK 293 cells was diluted in the reaction buffer (50 mM HEPES pH 8,0; 100 mM NaCl; 0,01% CHAPS; 0.5 mM Gluthathione) to the concentration of 20 nM and 25 μl was transferred into each single well of 384-well white microtiter plate (Greiner Bio One 781075). 1 μl of the inhibitor compound solution (dissolved in DMSO, at the corresponding concentration) or pure DMSO as a control was added to the same wells. The enzymatic reaction was initiated by addition of 25 μl of 20 μM solution of the FRET substrate ABZ-[…]-Lys (Dnp)-NH2; (ABZ-2-aminobenzoyl; DNP 2,4-dinitrophenyl; custom synthesis by Jerini Peptide Technologies, Berlin) in the reaction buffer. The microtiter plate was incubated for 60-120 min at the temperature of 32 C. The increase of fluorescence intensity was measured in appropriate fluorescence plate reader (e.g. TECAN Ultra) using excitation wavelength of 320 nm and emission wavelength of 420 nm. IC50 values were calculated from percentage of inhibition of human MASP1 activity as a function of test compound concentration.

Row | Compound | IC50 (human MASP2) | IC50 (human MASP1)
1 | CC[C@H](C)[C@@H]1NC(=O)[C@H](C)NC(=O)CCCCCNC(=O)[C@H](CC(=O)O)NC(=O)[C@@H]2CCCN2C(=O)[C@H]([C@@H](C)CC)NC(=O)[C@H]2NC(=O)[C@H]([C@@H](C)CC)NC(=O)[C@@H]3CCCN3C(=O)[C@@H]3CCCN3C(=O)[C@H](CC(C)(C)C)NC(=O)[C@H](CO)NC(=O)[C@H](CCCNC(=N)N)NC(=O)[C@H](CO)NC(=O)[C@H](CSSC2(C)C)NC1=O [Example 27] (cyclo(AICSRS[tBuAla]PPI[Pen]IPD[Ahx]); disulfide 3-11) | 37.5 nM | 9.1 nM
2 | CC[C@H](C)[C@@H]1NC(=O)[C@H](C)NC(=O)CNC(=O)[C@H](C)NC(=O)[C@H](CC(=O)O)NC(=O)[C@@H]2CCCN2C(=O)[C@H]([C@@H](C)CC)NC(=O)[C@@H]2CSSC[C@H](NC1=O)C(=O)N[C@@H](CO)C(=O)N[C@@H](CCCNC(=N)N)C(=O)N[C@@H](CO)C(=O)N[C@@H](CC(C)(C)C)C(=O)N1CCC[C@H]1C(=O)N1CCC[C@H]1C(=O)N[C@@H]([C@@H](C)CC)C(=O)N2C [Example 31] (cyclo(AGAICSRS[tBuAla]PPI[NMeC]IPD); disulfide 5-13) | 130 nM | 16 nM
3 | CC[C@@H]1NC(=O)CCCCCNC(=O)[C@H](CC(=O)O)NC(=O)[C@@H]2CCCN2C(=O)[C@H]([C@@H](C)CC)NC(=O)[C@@H]2CSSC[C@H](NC(=O)[C@H]([C@@H](C)CC)NC1=O)C(=O)N[C@@H](CO)C(=O)N[C@@H](CCCNC(=N)N)C(=O)N[C@@H](CO)C(=O)N[C@@H](CC(C)(C)C)C(=O)N1CCC[C@H]1C(=O)N1CCC[C@H]1C(=O)N[C@@H]([C@@H](C)CC)C(=O)N2C [Example 33] (cyclo([Abu]ICSRS[tBuAla]PPI[NMeC]IPD[Ahx]); disulfide 3-11) | 62 nM | 28 nM
4 | CC[C@H](C)[C@@H]1NC(=O)[C@H](C)NC(=O)CCOCCOCCNC(=O)[C@H](CC(=O)O)NC(=O)[C@@H]2CCCN2C(=O)[C@H]([C@@H](C)CC)NC(=O)[C@H]2NC(=O)[C@H]([C@@H](C)CC)NC(=O)[C@@H]3CCCN3C(=O)[C@@H]3CCCN3C(=O)[C@H](CC(C)(C)C)NC(=O)[C@H](CO)NC(=O)[C@H](CCCNC(=N)N)NC(=O)[C@H](CO)NC(=O)[C@H](CSSC2(C)C)NC1=O [Example 34] (cyclo(AICSRS[tBuAla]PPI[Pen]IPD[PEG2]); disulfide 3-11) | 98 nM | 11 nM
5 | CC[C@@H]1NC(=O)CCCCCNC(=O)[C@H](CC(=O)O)NC(=O)[C@@H]2CCCN2C(=O)[C@H]([C@@H](C)CC)NC(=O)[C@H]2NC(=O)[C@H]([C@@H](C)CC)NC(=O)[C@@H]3CCCN3C(=O)[C@@H]3CCCN3C(=O)[C@H](CC(C)(C)C)NC(=O)[C@H](CO)NC(=O)[C@H](CCCNC(=N)N)NC(=O)[C@H](CO)NC(=O)[C@H](CSSC2(C)C)NC(=O)[C@H]([C@@H](C)CC)NC1=O [Example 38] (cyclo([Abu]ICSRS[tBuAla]PPI[Pen]IPD[Ahx]); disulfide 3-11) | 44 nM | 20 nM
6 | CC[C@H](C)[C@@H]1NC(=O)[C@H](C)NC(=O)CCC(=O)NCCCOCCOCCOCCCNC(=O)[C@H](CC(=O)O)NC(=O)[C@@H]2CCCN2C(=O)[C@H]([C@@H](C)CC)NC(=O)[C@H]2NC(=O)[C@H]([C@@H](C)CC)NC(=O)[C@@H]3CCCN3C(=O)[C@@H]3CCCN3C(=O)[C@H](CC(C)(C)C)NC(=O)[C@H](CO)NC(=O)[C@H](CCCNC(=N)N)NC(=O)[C@H](CO)NC(=O)[C@H](CSSC2(C)C)NC1=O [Example 63] (AICSRS[tBuAla]PPI[Pen]IPD; disulfide 3-11; linker N-C via X6) | 170 nM | 28 nM

Results, then the compound that gave them:

Row | IC50 (human MASP2) | IC50 (human MASP1) | Compound
7 | 65 nM | 16 nM | CC[C@H](C)[C@@H]1NC(=O)CNC(=O)CCCCCNC(=O)[C@H](CC(=O)O)NC(=O)[C@@H]2CCCN2C(=O)[C@H]([C@@H](C)CC)NC(=O)[C@@H]2CSSC[C@H](NC1=O)C(=O)N[C@@H](CO)C(=O)N[C@@H](CCCNC(=N)N)C(=O)N[C@@H](CO)C(=O)N[C@@H](CC(C)(C)C)C(=O)N1CCC[C@H]1C(=O)N1CCC[C@H]1C(=O)N[C@@H]([C@@H](C)CC)C(=O)N2C [Example 30] (cyclo([Ahx]GICSRS[tBuAla]PPI[NMeC]IPD); disulfide 4-12)
8 | 90 nM | 7.1 nM | CC[C@H](C)[C@@H]1NC(=O)CNC(=O)CCCCCNC(=O)C[C@@H](C(N)=O)NC(=O)[C@@H]2CCCN2C(=O)[C@H]([C@@H](C)CC)NC(=O)[C@@H]2CSSC[C@H](NC1=O)C(=O)N[C@@H](CO)C(=O)N[C@@H](CCCNC(=N)N)C(=O)N[C@@H](CO)C(=O)N[C@@H](CC(C)(C)C)C(=O)N1CCC[C@H]1C(=O)N1CCC[C@H]1C(=O)N[C@@H]([C@@H](C)CC)C(=O)N2C [Example 40] ([Ahx]GICSRS[tBuAla]PPI[NMeC]IPD-NH2; disulfide 4-12; lactam N-15)
9 | 190 nM | 5.9 nM | CC[C@H](C)[C@@H]1NC(=O)[C@H](C)NC(=O)CNC(=O)[C@H](C)NC(=O)C[C@@H](C(N)=O)NC(=O)[C@@H]2CCCN2C(=O)[C@H]([C@@H](C)CC)NC(=O)[C@H]2NC(=O)[C@H]([C@@H](C)CC)NC(=O)[C@@H]3C[C@@H]4CCCC[C@@H]4N3C(=O)[C@@H]3CCCN3C(=O)[C@H](CC(C)C)NC(=O)[C@H](CO)NC(=O)[C@H](CCCNC(=N)N)NC(=O)[C@H](CO)NC(=O)[C@H](CSSC2(C)C)NC1=O [Example 41] (AGAICSRSLP[Oic]I[Pen]IPD-NH2; disulfide 5-13; lactam N-16)
10 | 200 nM | 13 nM | CC[C@H](C)[C@@H]1NC(=O)CNC(=O)CNC(=O)[C@H](C)NC(=O)C[C@@H](C(N)=O)NC(=O)[C@@H]2CCCN2C(=O)[C@H]([C@@H](C)CC)NC(=O)[C@H]2NC(=O)[C@H]([C@@H](C)CC)NC(=O)[C@@H]3C[C@@H]4CCCC[C@@H]4N3C(=O)[C@@H]3CCCN3C(=O)[C@H](CC(C)C)NC(=O)[C@H](CO)NC(=O)[C@H](CCCNC(=N)N)NC(=O)[C@H](CO)NC(=O)[C@H](CSSC2(C)C)NC1=O [Example 42] (AGGICSRSLP[Oic]I[Pen]IPD-NH2; disulfide 5-13; lactam N-16)
11 | 74 nM | 92 nM | CC[C@H](C)[C@@H]1NC(=O)[C@H](C)NC(=O)CCCCCNC(=O)[C@H](CC(=O)O)NC(=O)[C@@H]2CCCN2C(=O)[C@H]([C@@H](C)CC)NC(=O)[C@@H]2CSSC[C@H](NC1=O)C(=O)N[C@@H](CO)C(=O)N[C@@H](CCCNC(=N)N)C(=O)N[C@@H](CO)C(=O)N[C@@H](CC(C)C)C(=O)N1CCC[C@H]1C(=O)N1CCC[C@H]1C(=O)N[C@@H]([C@@H](C)CC)C(=O)N2 [Example 45] (cyclo(AICSRSLPPICIPD[Ahx]); disulfide 3-11)
12 | 66 nM | 8.2 nM | CC[C@H](C)[C@@H]1NC(=O)CNC(=O)CNC(=O)[C@H](C)NC(=O)[C@@H](CC(=O)O)NC(=O)[C@@H]2CCCN2C(=O)[C@H]([C@@H](C)CC)NC(=O)[C@@H]2CSSC[C@H](NC1=O)C(=O)N[C@@H](CO)C(=O)N[C@@H](CCCNC(=N)N)C(=O)N[C@@H](CO)C(=O)N[C@@H](CC(C)(C)C)C(=O)N1CCC[C@H]1C(=O)N1CCC[C@H]1C(=O)N[C@@H]([C@@H](C)CC)C(=O)N2C [Example 47] (cyclo(AGGICSRS[tBuAla]PPI[NMeC]IP[dD]); disulfide 5-13)
13 | 70 nM | 10 nM | CC[C@H](C)[C@@H]1NC(=O)CNC(=O)CCCCCNC(=O)C[C@@H](C(N)=O)NC(=O)[C@@H]2CCCN2C(=O)[C@H]([C@@H](C)CC)NC(=O)[C@H]2NC(=O)[C@H]([C@@H](C)CC)NC(=O)[C@@H]3CCCN3C(=O)[C@@H]3CCCN3C(=O)[C@H](CC(C)(C)C)NC(=O)[C@H](CO)NC(=O)[C@H](CCCNC(=N)N)NC(=O)[C@H](CO)NC(=O)[C@H](CSSC2(C)C)NC1=O [Example 48] ([Ahx]GICSRS[tBuAla]PPI[Pen]IPD-NH2; disulfide 4-12; lactam N-15)
14 | 140 nM | 19 nM | CC[C@H](C)[C@@H]1NC(=O)CNC(=O)CCCCCNC(=O)C[C@@H](C(N)=O)NC(=O)[C@@H]2CCCN2C(=O)[C@H]([C@@H](C)CC)NC(=O)[C@H]2NC(=O)[C@H]([C@@H](C)CC)NC(=O)[C@@H]3C[C@@H]4CCCC[C@@H]4N3C(=O)[C@@H]3CCCN3C(=O)[C@H](CC(C)C)NC(=O)[C@H](CO)NC(=O)[C@H](CCCNC(=N)N)NC(=O)[C@H](CO)NC(=O)[C@H](CSSC2(C)C)NC1=O [Example 49] ([Ahx]GICSRSLP[Oic]I[Pen]IPD-NH2; disulfide 4-12; lactam N-15)
